28 compounds from US7507730B2, “Substituted pyrazolo[1,5-a]pyrimidines as potassium channel activators” (Bristol-Myers Squibb Company, priority 2005, dated 2009) can be followed below.

Usually inhibition stands for the change of the read-out against control, counted positive when it falls. High values mean a response far below the control, low ones a response near the control. The IC50 is the concentration that inhibits the measured activity by half.

For one assay, the target named is Kv1.5 (Homo sapiens, UniProt P22460). Nature of the assay: Kv1.5 inhibition assay (IKur inhibitor assay per cited references). The format is cell-based. The following applies: at 0.3 μM. From the text: Assays to determine the degree of activity of a compound as an IKur inhibitor are well known in the art and are described in references such as J. Gen. Physiol. Apr.; 101 (4):513-43, and Br. J. Pharmacol. 1995 May; 115(2):267-74.
Sequence of Kv1.5 (P22460 whole entry): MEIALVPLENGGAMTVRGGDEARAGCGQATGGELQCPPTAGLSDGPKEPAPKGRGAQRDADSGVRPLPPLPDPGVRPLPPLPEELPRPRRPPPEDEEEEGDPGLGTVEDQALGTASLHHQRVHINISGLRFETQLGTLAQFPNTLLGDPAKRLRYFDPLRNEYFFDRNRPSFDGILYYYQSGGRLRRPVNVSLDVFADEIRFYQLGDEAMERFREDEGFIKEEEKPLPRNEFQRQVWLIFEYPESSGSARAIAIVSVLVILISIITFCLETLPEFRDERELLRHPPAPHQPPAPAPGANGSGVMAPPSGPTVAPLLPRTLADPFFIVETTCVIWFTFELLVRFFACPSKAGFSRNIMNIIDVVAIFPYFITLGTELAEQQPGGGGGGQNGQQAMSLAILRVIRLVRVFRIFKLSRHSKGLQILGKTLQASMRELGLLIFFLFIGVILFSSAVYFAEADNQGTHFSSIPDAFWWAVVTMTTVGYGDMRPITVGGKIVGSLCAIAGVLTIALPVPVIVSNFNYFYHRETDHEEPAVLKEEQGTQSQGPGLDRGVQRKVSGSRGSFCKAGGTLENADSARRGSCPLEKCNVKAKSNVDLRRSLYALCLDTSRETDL
For `CC1=C(S(=O)(=O)c2ccccc2)C(c2ccc(Cl)c(F)c2)n2nc(C(F)(F)F)cc2N1` (single isomer, unassigned) [Example 33 Isomer 1, 7-(4-Chloro-3-fluorophenyl)-5-methyl-6-(phenylsulfonyl)-2-(trifluoromethyl)-4,7-dihydropyrazolo[1,5-a]pyrimidine], 0.3 µM produced 75.5% inhibition. As to `Cc1cc2nc(C)c(S(=O)(=O)Cc3ccccc3)c(-c3ccc(Cl)c(Cl)c3)n2n1` (racemic) [Example 15, 6-(Benzylsulfonyl)-7-(3,4-dichlorophenyl)-2,5-dimethylpyrazolo[1,5-a]pyrimidine], at 0.3 µM the inhibition was 8.5%. The same measure, in the same setting: as for `CC1=C(S(=O)(=O)c2ccccc2)C(c2ccc3c(c2)OCO3)n2nc(C)cc2N1` (racemic) [Example 6, 7-(Benzo[d][1,3]dioxol-5-yl)-2,5-dimethyl-6-(phenylsulfonyl)-4,7-dihydropyrazolo[1,5-a]pyrimidine], the figure is 6.1%; as for `CC1=C(S(=O)(=O)Cc2ccccc2)C(c2ccc(Cl)c(Cl)c2)n2nc(C(F)(F)F)cc2N1` (racemic) [Example 16, 6-(Benzylsulfonyl)-7-(3,4-dichlorophenyl)-5-methyl-2-(trifluoromethyl)-4,7-dihydropyrazolo[1,5-a]pyrimidine], 37.2%. In the case of `CC1=C(S(=O)(=O)c2ccc(Cl)cc2)C(C2CCCCC2)n2nc(C(F)(F)F)cc2N1` (single isomer, unassigned) [Example 44 Isomer 2, 6-(4-Chlorophenylsulfonyl)-7-cyclohexyl-5-methyl-2-(trifluoromethyl)-4,7-dihydropyrazolo[1,5-a]pyrimidine], the inhibition at 0.3 µM came out at 21.3%. In turn, `CCN(CC)S(=O)(=O)C1=C(C)Nc2cc(C)nn2C1c1ccc(Cl)c(Cl)c1` (single isomer, unassigned) [Example 61 Isomer 1, 7-(3,4-Dichlorophenyl)-N,N-diethyl-2,5-dimethyl-4,7-dihydropyrazolo[1,5-a]pyrimidine-6-sulfonamide] showed a Kv1.5% inhibition of 90.5%. Compound `CC1=C(C(=O)N2CCCCS2(=O)=O)C(c2ccc(Cl)c(Cl)c2)n2nc(C)cc2N1` (single isomer, unassigned) [Example 84 Isomer 2] came in with a Kv1.5% inhibition of 7%. The compound `CC1=C(S(=O)(=O)N(C)c2ccccc2)C(c2ccc(Cl)c(Cl)c2)n2nc(C(F)(F)F)cc2N1` (single isomer, unassigned) [Example 63 Isomer 2, 7-(3,4-Dichlorophenyl)-N,5-dimethyl-N-phenyl-2-(trifluoromethyl)-4,7-dihydropyrazolo[1,5-a]pyrimidine-6-sulfonamide] returned a Kv1.5% inhibition of 31%. For `CC1=C(S(=O)(=O)N2CCCC2)C(c2ccc(Cl)c(Cl)c2)n2nc(C)cc2N1` (single isomer, unassigned) [Example 53 Isomer 1, 7-(3,4-Dichlorophenyl)-2,5-dimethyl-6-(pyrrolidin-1-ylsulfonyl)-4,7-dihydropyrazolo[1,5-a]pyrimidine], the Kv1.5% inhibition is listed as 95.7%.

For `CC1=C(S(=O)(=O)N2CCCC2)C(c2ccc(Cl)cc2)n2nc(C(F)(F)F)cc2N1` (single isomer, unassigned) [Example 67 Isomer 1, 7-(4-Chlorophenyl)-5-methyl-6-(pyrrolidin-1-ylsulfonyl)-2-(trifluoromethyl)-4,7-dihydropyrazolo[1,5-a]pyrimidine], testing at 0.3 µM gave an inhibition of 60%. On the same count and under the same terms, as for `CC1=C(S(=O)(=O)NCc2ccccc2)C(c2ccc(Cl)c(Cl)c2)n2nc(C(F)(F)F)cc2N1` (single isomer, unassigned) [Example 56 Isomer 1, N-Benzyl-7-(3,4-dichlorophenyl)-5-methyl-2-(trifluoromethyl)-4,7-dihydropyrazolo[1,5-a]pyrimidine-6-sulfonamide], the figure is 50%; as for `Cc1nc2cc(C(F)(F)F)nn2c(-c2ccc(Cl)c(Cl)c2)c1S(=O)(=O)N(C)c1ccccc1` (racemic) [Example 62, 7-(3,4-Dichlorophenyl)-N,5-dimethyl-N-phenyl-2-(trifluoromethyl)pyrazolo[1,5-a]pyrimidine-6-sulfonamide], 12%; as for `COc1ccccc1S(=O)(=O)C1=C(C)Nc2cc(C(F)(F)F)nn2C1c1ccc(Cl)cc1` (single isomer, unassigned) [Example 46 Isomer 1, 7-(4-Chlorophenyl)-6-(2-methoxyphenylsulfonyl)-5-methyl-2-(trifluoromethyl)-4,7-dihydropyrazolo[1,5-a]pyrimidine], 78.1%. `CC1=C(S(=O)(=O)c2ccc(Cl)cc2)C(c2cncnc2)n2nc(C(F)(F)F)cc2N1` (single isomer, unassigned) [Example 50 Isomer 2, 6-(4-Chlorophenylsulfonyl)-5-methyl-7-(pyrimidin-5-yl)-2-(trifluoromethyl)-4,7-dihydropyrazolo[1,5-a]pyrimidine] came in with a Kv1.5% inhibition of 14.7%. Take `CCN(CC)S(=O)(=O)C1=C(C)Nc2cc(C)nn2C1c1ccc(Cl)c(Cl)c1` (single isomer, unassigned) [Example 61 Isomer 2, 7-(3,4-Dichlorophenyl)-N,N-diethyl-2,5-dimethyl-4,7-dihydropyrazolo[1,5-a]pyrimidine-6-sulfonamide]: the Kv1.5% inhibition turned out to be 42.3%. `COc1ccc(S(=O)(=O)C2=C(C)Nc3cc(C(F)(F)F)nn3C2c2ccc(Cl)cc2)cc1OC` (single isomer, unassigned) [Example 51 Isomer 2, 7-(4-Chlorophenyl)-6-(3,4-dimethoxyphenylsulfonyl)-5-methyl-2-(trifluoromethyl)-4,7-dihydropyrazolo[1,5-a]pyrimidine]: the Kv1.5% inhibition turned out to be 79.2%.

For the compound `CC1=C(S(=O)(=O)c2ccc(Cl)cc2)C(c2ccc(C)cc2)n2nc(C(F)(F)F)cc2N1` (racemic) [Example 34, 6-(4-Chlorophenylsulfonyl)-5-methyl-7-p-tolyl-2-(trifluoromethyl)-4,7-dihydropyrazolo[1,5-a]pyrimidine], the inhibition at 0.3 µM came to 37.6%. Same read-out and setting: as for `CC1=C(S(=O)(=O)c2ccc(Cl)cc2)C(c2ccc(F)cc2)n2nc(C(F)(F)F)cc2N1` (single isomer, unassigned) [Example 43 Isomer 1, 6-(4-Chlorophenylsulfonyl)-7-(4-fluorophenyl)-5-methyl-2-(trifluoromethyl)-4,7-dihydropyrazolo[1,5-a]pyrimidine], the figure is 83.6%. For `CC1=C(C(=O)N(C)S(=O)(=O)c2ccc(F)cc2)C(c2ccc(Cl)c(Cl)c2)n2nc(C)cc2N1` (single isomer, unassigned) [Example 80 Isomer 1, 7-(3,4-Dichlorophenyl)-N-(4-fluorophenylsulfonyl)-N,2,5-trimethyl-4,7-dihydropyrazolo[1,5-a]pyrimidine-6-carboxamide], the Kv1.5% inhibition is 37%.

As for `CC1=C(S(=O)(=O)c2ccccc2)C(c2ccc(Cl)c(F)c2)n2nc(C)cc2N1` (single isomer, unassigned) [Example 7 Isomer 2, 7-(4-Chloro-3-fluorophenyl)-2,5-dimethyl-6-(phenylsulfonyl)-4,7-dihydropyrazolo[1,5-a]pyrimidine], the Kv1.5% inhibition is 32.4%.

For `CC1=C(S(=O)(=O)NC(C)(C)C)C(c2ccc(Cl)cc2)n2nc(C(F)(F)F)cc2N1` (single isomer, unassigned) [Example 57 Isomer 2, N-tert-Butyl-7-(4-chlorophenyl)-5-methyl-2-(trifluoromethyl)-4,7-dihydropyrazolo[1,5-a]pyrimidine-6-sulfonamide], the Kv1.5% inhibition was 36.9%.

`COc1cccc(S(=O)(=O)C2=C(C)Nc3cc(C(F)(F)F)nn3C2c2ccc(Cl)c(Cl)c2)c1` (single isomer, unassigned) [Example 39 Isomer 1, 7-(3,4-Dichlorophenyl)-6-(3-methoxyphenylsulfonyl)-5-methyl-2-(trifluoromethyl)-4,7-dihydropyrazolo[1,5-a]pyrimidine]: the inhibition at 0.3 µM stood at 78.6%. `CC1=C(C(=O)N(C)S(=O)(=O)c2ccc(Cl)cc2)C(c2ccc(Cl)c(Cl)c2)n2nccc2N1` (racemic) [Example 75, N-(4-Chlorophenylsulfonyl)-7-(3,4-dichlorophenyl)-N,5-dimethyl-4,7-dihydropyrazolo[1,5-a]pyrimidine-6-carboxamide] returned an inhibition at 0.3 µM of 89%. Regarding `CC1=C(S(=O)(=O)N(C)c2ccccc2)C(c2ccc(Cl)c(Cl)c2)n2nc(C(F)(F)F)cc2N1` (single isomer, unassigned) [Example 63 Isomer 1, 7-(3,4-Dichlorophenyl)-N,5-dimethyl-N-phenyl-2-(trifluoromethyl)-4,7-dihydropyrazolo[1,5-a]pyrimidine-6-sulfonamide], the inhibition at 0.3 µM was 30%.

The same assay, now with this note: read-out: Kv1.5 IC50.
As to `COc1ccc(S(=O)(=O)C2=C(C)Nc3cc(C)nn3C2c2ccc(C)c(F)c2)cc1` (single isomer, unassigned) [Example 24 Isomer 1, 7-(3-Fluoro-4-methylphenyl)-6-(4-methoxyphenylsulfonyl)-2,5-dimethyl-4,7-dihydropyrazolo[1,5-a]pyrimidine], the IC50 is 148 nM. For the compound `CC1=C(C(=O)N(C)S(=O)(=O)C(C)C)C(c2ccc(Cl)c(Cl)c2)n2nc(C(F)(F)F)cc2N1` (racemic) [Example 87, 7-(3,4-Dichlorophenyl)-N-(isopropylsulfonyl)-N,5-dimethyl-2-(trifluoromethyl)-4,7-dihydropyrazolo[1,5-a]pyrimidine-6-carboxamide], the IC50 was 259 nM. On to `COc1ccc(S(=O)(=O)C2=C(C)Nc3cc(C)nn3C2c2ccc(C)c(F)c2)cc1` (single isomer, unassigned) [Example 24 Isomer 2, 7-(3-Fluoro-4-methylphenyl)-6-(4-methoxyphenylsulfonyl)-2,5-dimethyl-4,7-dihydropyrazolo[1,5-a]pyrimidine], for which the IC50 amounted to 322 nM. Take `CC1=C(S(=O)(=O)c2ccccc2)C(c2ccc(Cl)c(Cl)c2)n2nc(C)cc2N1` (single isomer, unassigned) [Example 3 Isomer 1, 7-(3,4-Dichlorophenyl)-2,5-dimethyl-6-(phenylsulfonyl)-4,7-dihydropyrazolo[1,5-a]pyrimidine]: the IC50 amounted to 41 nM.
